# Details: 1.0% DMSO, 24-hour incubation at ambient temperature, maximum theoretical 100 μM; for pH 2 solubility: 0.1N HCl, first value of the cell; for pH 7 solubility: 1×PBS buffer (pH 7.4), second value of the cell
pH 2 solubility,pH 7 solubility,Compound
1 μM,99 μM,"C[C@H](OC(=O)N(c1nn(CC(F)(F)F)c2c(-c3ccc(C#CC(C)(C)S(C)(=O)=O)nc3[C@H](Cc3cc(F)cc(F)c3)NC(=O)Cn3nc(C(F)(F)F)c4c3C(F)(F)[C@@H]3C[C@H]43)ccc(Cl)c12)S(C)(=O)=O)[C@H](C)OP(=O)(O)O [Compound 96, (2S,3S)-3-(phosphonooxy)butan-2-yl (4-chloro-7-(2-((S)-1-(2-((3bS,4aR)-5,5-difluoro-3-(trifluoromethyl)-3b,4,4a,5-tetrahydro-1H-cyclopropa[3,4]cyclopenta[1,2-c]pyrazol-1-yl)acetamido)-2-(3,5-difluorophenyl)ethyl)-6-(3-methyl-3-(methylsulfonyl)but-1-yn-1-yl)pyridin-3-yl)-1-(2,2,2-trifluoroethyl)-1H-indazol-3-yl)(methylsulfonyl)carbamate]"
1/1 μM,1/1 μM,"COC(=O)C(=O)N(c1nn(CC(F)(F)F)c2c(-c3ccc(C#CC(C)(C)S(C)(=O)=O)nc3[C@H](Cc3cc(F)cc(F)c3)NC(=O)Cn3nc(C(F)(F)F)c4c3C(F)(F)[C@@H]3C[C@H]43)ccc(Cl)c12)S(C)(=O)=O [Compound 15, methyl 2-(N-(4-chloro-7-(2-((S)-1-(2-((3bS,4aR)-5,5-difluoro-3-(trifluoromethyl)-3b,4,4a,5-tetrahydro-1H-cyclopropa[3,4]cyclopenta[1,2-c]pyrazol-1-yl)acetamido)-2-(3,5-difluorophenyl)ethyl)-6-(3-methyl-3-(methylsulfonyl)but-1-yn-1-yl)pyridin-3-yl)-1-(2,2,2-trifluoroethyl)-1H-indazol-3-yl)methylsulfonamido)-2-oxoacetate]"
1/1 μM,1/1 μM,"COC(=O)CN(C)C(=O)N(c1nn(CC(F)(F)F)c2c(-c3ccc(C#CC(C)(C)S(C)(=O)=O)nc3[C@H](Cc3cc(F)cc(F)c3)NC(=O)Cn3nc(C(F)(F)F)c4c3C(F)(F)[C@@H]3C[C@H]43)ccc(Cl)c12)S(C)(=O)=O [Compound 43, methyl N-((4-chloro-7-(2-((S)-1-(2-((3bS,4aR)-5,5-difluoro-3-(trifluoromethyl)-3b,4,4a,5-tetrahydro-1H-cyclopropa[3,4]cyclopenta[1,2-c]pyrazol-1-yl)acetamido)-2-(3,5-difluorophenyl)ethyl)-6-(3-methyl-3-(methylsulfonyl)but-1-yn-1-yl)pyridin-3-yl)-1-(2,2,2-trifluoroethyl)-1H-indazol-3-yl)(methylsulfonyl)carbamoyl)-N-methylglycinate]"
14 μM,22 μM,"CC(C)(C#Cc1ccc(-c2ccc(Cl)c3c(N(C(=O)N(CC(=O)O)CC(=O)O)S(C)(=O)=O)nn(CC(F)(F)F)c23)c([C@H](Cc2cc(F)cc(F)c2)NC(=O)Cn2nc(C(F)(F)F)c3c2C(F)(F)[C@@H]2C[C@H]32)n1)S(C)(=O)=O [Compound 78, 2,2′-(((4-chloro-7-(2-((S)-1-(2-((3bS,4aR)-5,5-difluoro-3-(trifluoromethyl)-3b,4,4a,5-tetrahydro-1H-cyclopropa[3,4]cyclopenta[1,2-c]pyrazol-1-yl)acetamido)-2-(3,5-difluorophenyl)ethyl)-6-(3-methyl-3-(methylsulfonyl)but-1-yn-1-yl)pyridin-3-yl)-1-(2,2,2-trifluoroethyl)-1H-indazol-3-yl)(methylsulfonyl)carbamoyl)azanediyl)diacetic acid]"
1/1 μM,1/1 μM,"CC(C)(O)CNC(=O)N(c1nn(CC(F)(F)F)c2c(-c3ccc(C#CC(C)(C)S(C)(=O)=O)nc3[C@H](Cc3cc(F)cc(F)c3)NC(=O)Cn3nc(C(F)(F)F)c4c3C(F)(F)[C@@H]3C[C@H]43)ccc(Cl)c12)S(C)(=O)=O [Compound 32, N—((S)-1-(3-(4-chloro-3-(N-((2-hydroxy-2-methylpropyl)carbamoyl)methylsulfonamido)-1-(2,2,2-trifluoroethyl)-1H-indazol-7-yl)-6-(3-methyl-3-(methylsulfonyl)but-1-yn-1-yl)pyridin-2-yl)-2-(3,5-difluorophenyl)ethyl)-2-((3bS,4aR)-5,5-difluoro-3-(trifluoromethyl)-3b,4,4a,5-tetrahydro-1H-cyclopropa[3,4]cyclopenta[1,2-c]pyrazol-1-yl)acetamide]"
1 μM,2 μM,"CC(C)(C#Cc1ccc(-c2ccc(Cl)c3c(N(C(=O)OCCCO)S(C)(=O)=O)nn(CC(F)(F)F)c23)c([C@H](Cc2cc(F)cc(F)c2)NC(=O)Cn2nc(C(F)(F)F)c3c2C(F)(F)[C@@H]2C[C@H]32)n1)S(C)(=O)=O [Compound 97, 3-hydroxypropyl (4-chloro-7-(2-((S)-1-(2-((3bS,4aR)-5,5-difluoro-3-(trifluoromethyl)-3b,4,4a,5-tetrahydro-1H-cyclopropa[3,4]cyclopenta[1,2-c]pyrazol-1-yl)acetamido)-2-(3,5-difluorophenyl)ethyl)-6-(3-methyl-3-(methylsulfonyl)but-1-yn-1-yl)pyridin-3-yl)-1-(2,2,2-trifluoroethyl)-1H-indazol-3-yl)(methylsulfonyl)carbamate]"
1 μM,58 μM,"CC(C)(C#Cc1ccc(-c2ccc(Cl)c3c(N(C(=O)N[C@H](CC(=O)O)C(=O)O)S(C)(=O)=O)nn(CC(F)(F)F)c23)c([C@H](Cc2cc(F)cc(F)c2)NC(=O)Cn2nc(C(F)(F)F)c3c2C(F)(F)[C@@H]2C[C@H]32)n1)S(C)(=O)=O [Compound 70, ((4-chloro-7-(2-((S)-1-(2-((3bS,4aR)-5,5-difluoro-3-(trifluoromethyl)-3b,4,4a,5-tetrahydro-1H-cyclopropa[3,4]cyclopenta[1,2-c]pyrazol-1-yl)acetamido)-2-(3,5-difluorophenyl)ethyl)-6-(3-methyl-3-(methylsulfonyl)but-1-yn-1-yl)pyridin-3-yl)-1-(2,2,2-trifluoroethyl)-1H-indazol-3-yl)(methylsulfonyl)carbamoyl)-D-aspartic acid]"
1/1 μM,1/1 μM,"C[C@H](OC(=O)N(c1nn(CC(F)(F)F)c2c(-c3ccc(C#CC(C)(C)S(C)(=O)=O)nc3[C@H](Cc3cc(F)cc(F)c3)NC(=O)Cn3nc(C(F)(F)F)c4c3C(F)(F)[C@@H]3C[C@H]43)ccc(Cl)c12)S(C)(=O)=O)C(=O)O [Compound 115, (S)-2-(((4-chloro-7-(2-((S)-1-(2-((3bS,4aR)-5,5-difluoro-3-(trifluoromethyl)-3b,4,4a,5-tetrahydro-1H-cyclopropa[3,4]cyclopenta[1,2-c]pyrazol-1-yl)acetamido)-2-(3,5-difluorophenyl)ethyl)-6-(3-methyl-3-(methylsulfonyl)but-1-yn-1-yl)pyridin-3-yl)-1-(2,2,2-trifluoroethyl)-1H-indazol-3-yl)(methylsulfonyl)carbamoyl)oxy)propanoic acid]"
1 μM,9 μM,"C[C@@H](O)[C@H](NC(=O)N(c1nn(CC(F)(F)F)c2c(-c3ccc(C#CC(C)(C)S(C)(=O)=O)nc3[C@H](Cc3cc(F)cc(F)c3)NC(=O)Cn3nc(C(F)(F)F)c4c3C(F)(F)[C@@H]3C[C@H]43)ccc(Cl)c12)S(C)(=O)=O)C(=O)O [Compound 61, ((4-chloro-7-(2-((S)-1-(2-((3bS,4aR)-5,5-difluoro-3-(trifluoromethyl)-3b,4,4a,5-tetrahydro-1H-cyclopropa[3,4]cyclopenta[1,2-c]pyrazol-1-yl)acetamido)-2-(3,5-difluorophenyl)ethyl)-6-(3-methyl-3-(methylsulfonyl)but-1-yn-1-yl)pyridin-3-yl)-1-(2,2,2-trifluoroethyl)-1H-indazol-3-yl)(methylsulfonyl)carbamoyl)-L-threonine]"
24 μM,1 μM,"CC(C)(C#Cc1ccc(-c2ccc(Cl)c3c(N(C(=O)OCCN4CCOCC4)S(C)(=O)=O)nn(CC(F)(F)F)c23)c([C@H](Cc2cc(F)cc(F)c2)NC(=O)Cn2nc(C(F)(F)F)c3c2C(F)(F)[C@@H]2C[C@H]32)n1)S(C)(=O)=O [Compound 114, 2-morpholinoethyl (4-chloro-7-(2-((S)-1-(2-((3bS,4aR)-5,5-difluoro-3-(trifluoromethyl)-3b,4,4a,5-tetrahydro-1H-cyclopropa[3,4]cyclopenta[1,2-c]pyrazol-1-yl)acetamido)-2-(3,5-difluorophenyl)ethyl)-6-(3-methyl-3-(methylsulfonyl)but-1-yn-1-yl)pyridin-3-yl)-1-(2,2,2-trifluoroethyl)-1H-indazol-3-yl)(methylsulfonyl)carbamate]"
62 μM,5 μM,"CC(C)(C#Cc1ccc(-c2ccc(Cl)c3c(N(C(=O)NCCN4CCOCC4)S(C)(=O)=O)nn(CC(F)(F)F)c23)c([C@H](Cc2cc(F)cc(F)c2)NC(=O)Cn2nc(C(F)(F)F)c3c2C(F)(F)[C@@H]2C[C@H]32)n1)S(C)(=O)=O [Compound 42, N—((S)-1-(3-(4-chloro-3-(N-((2-morpholinoethyl)carbamoyl)methylsulfonamido)-1-(2,2,2-trifluoroethyl)-1H-indazol-7-yl)-6-(3-methyl-3-(methylsulfonyl)but-1-yn-1-yl)pyridin-2-yl)-2-(3,5-difluorophenyl)ethyl)-2-((3bS,4aR)-5,5-difluoro-3-(trifluoromethyl)-3b,4,4a,5-tetrahydro-1H-cyclopropa[3,4]cyclopenta[1,2-c]pyrazol-1-yl)acetamide]"

Compound,pH 2 solubility,pH 7 solubility
"CC(C)(C#Cc1ccc(-c2ccc(Cl)c3c(N(COP(=O)(O)O)S(C)(=O)=O)nn(CC(F)(F)F)c23)c([C@H](Cc2cc(F)cc(F)c2)NC(=O)Cn2nc(C(F)(F)F)c3c2C(F)(F)[C@@H]2C[C@H]32)n1)S(C)(=O)=O [Compound 23, (N-(4-chloro-7-(2-((S)-1-(2-((3bS,4aR)-5,5-difluoro-3-(trifluoromethyl)-3b,4,4a,5-tetrahydro-1H-cyclopropa[3,4]cyclopenta[1,2-c]pyrazol-1-yl)acetamido)-2-(3,5-difluorophenyl)ethyl)-6-(3-methyl-3-(methylsulfonyl)but-1-yn-1-yl)pyridin-3-yl)-1-(2,2,2-trifluoroethyl)-1H-indazol-3-yl)methylsulfonamido)methyl dihydrogen phosphate]",6 μM,100 μM
